From patent US8436005B2, “Macrocyclic pyrimidine derivatives” (Abbott Laboratories, priority 2008, dated 2013)

Tested on: carrageenan-induced thermal hyperalgesia
Test: Acute model of carrageenan-induced thermal hyperalgesia (hotbox assay)
Type: in vivo
Conditions: 100 micromole/kg intraperitoneally, 90 minutes after carrageenan, tested 30 minutes after dosing
Description: To assess the effectiveness of representative compounds of the invention against acute model inflammatory pain, animals can be tested in an acute model of carrageenan-induced thermal hyperalgesia (see for example, Honore, et al. Behavioural Brain Research (2006) vol. 167 pp. 355-364; Porreca, et al. Journal of Pharmacology and Experimental Therapeutics (2006) vol. 318 pp. 195-205). Carrageenan is injected into the test paw of the animal, and after 90 minutes, the test drug is administered by intraperitoneal dosing; the effect on thermal hyperalgesia is assessed in a hotbox assay which is done 30 minutes after the intraperitoneal dosing of the test drug. The MPE (maximal percent effect) is reported by comparison to the control paw (not injected with carrageenan), MPE being expressed as 100 times the withdrawal latency of the carrageenan injected paw (in seconds) divided by the withdrawal latency of the control (not injected with carrageenan) paw.

Compound	MPE (maximal percent effect), withdrawal latency of carrageenan injected paw vs control paw [%]
Nc1nc2c(c(N3CCNCC3)n1)CCCCC2c1ccccc1 (centres unmarked) [Example 19, 9-phenyl-4-(piperazin-1-yl)-6,7,8,9-tetrahydro-5H-cyclohepta[d]pyrimidin-2-amine]	26
Nc1nc2c(c(N3C[C@H]4CCCN[C@H]4C3)n1)CCCCC2c1ccccc1 (stereo partly drawn) [Example 21, 9-phenyl-4-((4aR,7aR)-tetrahydro-1H-pyrrolo[3,4-b]pyridin-6(2H,7H,7aH)-yl)-6,7,8,9-tetrahydro-5H-cyclohepta[d]pyrimidin-2-amine]	24
